# Source: patent US11883422B2, “Glycan therapeutic compositions and related methods thereof” (DSM Nutritional Products, LLC, priority 2015, dated 2024)
# System: colonic propulsion in morphine-treated mice
# Assay: Mouse model of opioid-induced constipation: colonic propulsion (bead expulsion) after morphine
# Format: in vivo
# Method: This study was conducted to analyze the effects of glycan therapeutics in a mouse model of opioid-induced constipation. In this model, normal mice are dosed with glycan or control for several days and then administered a dose of morphine sufficient to produce decreased gastrointestinal (GI) transit and colonic propulsion (Coates et al. 2006 Neurogastroenterol Motil 18:464-471). In humans, morphine and related opiate drugs are known to cause constipation. They act on neurons in the myenteric plexus as mu-opioid receptor agonists, leading to decreased GI motility and propulsion. The proportion of the US adult population who take opiates chronically (non-cancer patients), is roughly 4%. In an observational study of patients on opiates for chronic pain, 47% experienced constipation (Tuteja et al. […] Neurogastroenterol Motil 22: 424-430). There is evidence that chronic constipation can predispose individuals to benign GI neoplasms and colorectal cancer. […]
# Several drug toxicities affecting GI motility (e.g. causing constipation or diarrhea) in cancer are also related to or associated with other immune imbalances and nutritional imbalances. […] Colonic propulsion was assessed as follows: thirty minutes post morphine dosing, a 3 mm glass bead was inserted at a depth of 2 cm into the distal colon through each mouse's anus. […]
smiles,measurement,setting,value
C=CCN1CC[C@]23c4c5ccc(O)c4O[C@H]2C(=O)CC[C@@]3(O)[C@H]1C5 [naloxone],"responders (reduction in expulsion of >25% of maximum expulsion time, 1350 seconds)","1% in drinking water for 11 days (naloxone 30 minutes prior to morphine), morphine 3 mg/kg subcutaneously",6/8
same,effect in this mouse model of colonic propulsion,"third analysis, responder versus non-responder animals, cutoff 1800 seconds",reversing the effects of morphine
